How the values were obtained:
Conditions in all cases: 72 h
HepG2 [1] = assay: drug sensitivity score (DSS) for viability; higher = more toxic; extreme values may be limits of the assay
Caco-2 [2] = assay: as above
Calu-3 [3] = assay: as above
U2OS [4] = assay: as above
Vero E6 [5] = assay: as above
HepG2 [6] = assay: relative viability EC50 (midpoint between 100% and the lowest measured viability); higher = less toxic
Caco-2 [7] = assay: as above
Calu-3 [8] = assay: as above
U2OS [9] = assay: as above
Vero E6 [10] = assay: as above
HepG2 [11] = assay: cell viability relative to DMSO; higher = less toxic
Caco-2 [12] = assay: as above
Calu-3 [13] = assay: as above
U2OS [14] = assay: as above
Vero E6 [15] = assay: as above

Structure (SMILES)	drug sensitivity score (HepG2 [1])	drug sensitivity score (Caco-2 [2])	drug sensitivity score (Calu-3 [3])	drug sensitivity score (U2OS [4])	drug sensitivity score (Vero E6 [5])	relative viability EC50 (HepG2 [6])	relative viability EC50 (Caco-2 [7])	relative viability EC50 (Calu-3 [8])	relative viability EC50 (U2OS [9])	relative viability EC50 (Vero E6 [10])	cell viability (HepG2 [11]; 1 nM)	cell viability (HepG2 [11]; 10 nM)	cell viability (HepG2 [11]; 100 nM)	cell viability (HepG2 [11]; 1000 nM)	cell viability (HepG2 [11]; 10000 nM)	cell viability (Caco-2 [12]; 1 nM)	cell viability (Caco-2 [12]; 10 nM)	cell viability (Caco-2 [12]; 100 nM)	cell viability (Caco-2 [12]; 1000 nM)	cell viability (Caco-2 [12]; 10000 nM)	cell viability (Calu-3 [13]; 1 nM)	cell viability (Calu-3 [13]; 10 nM)	cell viability (Calu-3 [13]; 100 nM)	cell viability (Calu-3 [13]; 1000 nM)	cell viability (Calu-3 [13]; 10000 nM)	cell viability (U2OS [14]; 1 nM)	cell viability (U2OS [14]; 10 nM)	cell viability (U2OS [14]; 100 nM)	cell viability (U2OS [14]; 1000 nM)	cell viability (U2OS [14]; 10000 nM)	cell viability (Vero E6 [15]; 1 nM)	cell viability (Vero E6 [15]; 10 nM)	cell viability (Vero E6 [15]; 100 nM)	cell viability (Vero E6 [15]; 1000 nM)	cell viability (Vero E6 [15]; 10000 nM)
CN(C)Cc1c(C(=O)NCCOc2ccc(C(=O)NO)cc2)oc2ccccc12	19	15.6	16.1	17.6	13	0.231 µM	0.425 µM	0.276 µM	0.292 µM	0.738 µM	98.9%	92.7%	76.5%	11.4%	0.1%	90.2%	101%	89.2%	23.6%	1.4%	95.3%	93.2%	73.5%	31.9%	8.2%	96.9%	101%	82.4%	15.8%	1.3%	97.4%	96.2%	95.7%	38.2%	-0.1%
CN(CCOc1ccc(-c2ccc3c(c2)OCO3)cc1C(C)(C)C)CC(=O)O	0	0	0	0	0	> 10 µM	> 10 µM	> 10 µM	> 10 µM	> 10 µM	95.8%	89.7%	110%	92.9%	110%	104%	102%	94.2%	92.8%	89.8%	100%	95.1%	93.9%	103%	107%	93.9%	98.5%	97.5%	101%	100%	99.3%	97.6%	97.6%	95.3%	98.7%
COc1ccc(Nc2ncnc3ccc(OC)cc23)cc1	0.6	0	1.5	0	0.2	> 10 µM	> 10 µM	> 10 µM	> 10 µM	> 10 µM	106%	98.3%	93.5%	93%	83%	105%	102%	101%	99.5%	91.3%	93.9%	108%	95.4%	89.6%	77.5%	101%	102%	103%	99%	106%	102%	106%	99.6%	100%	85.2%
Cc1ccc(NC(=O)c2cccc(N(C)C)c2)cc1NC(=O)c1ccc(O)cc1	0.8	0.8	0	0	0	> 10 µM	> 10 µM	> 10 µM	> 10 µM	> 10 µM	98.8%	97.7%	105%	94.3%	84.1%	101%	102%	89%	93.6%	81.8%	104%	104%	91.7%	94.7%	99%	104%	100%	99.5%	97%	104%	101%	99.8%	98.4%	101%	102%
Cn1cc(-c2ccc3nnc(C(F)(F)c4ccc5ncccc5c4)n3n2)cn1	0	0	0	0	0	> 10 µM	> 10 µM	> 10 µM	> 10 µM	> 10 µM	102%	94.3%	105%	109%	104%	105%	96%	95.3%	95.9%	92.3%	97.4%	104%	89.6%	108%	106%	104%	101%	101%	95.5%	96.9%	99.9%	107%	101%	97.8%	92.4%
N=C(C[C@@H](O)COc1ccccc1-c1ccccc1)N1CCCCC1	0	0	0.2	0	0	> 10 µM	> 10 µM	> 10 µM	> 10 µM	> 10 µM	92.8%	94.5%	109%	84.4%	101%	95.7%	100%	81.8%	96.6%	89.5%	100%	98.2%	90.1%	104%	83.6%	99.9%	103%	96.8%	102%	92.8%	97.5%	102%	96.6%	96.8%	102%
Nc1nc2c(c(N3CCNCC3)n1)CCC1=C2[C@@H]2CCCC[C@@H]2O1	2.2	0	0	0	0.1	–	> 10 µM	> 10 µM	> 10 µM	> 10 µM	94.8%	105%	109%	102%	54.2%	99.3%	95.5%	93%	91.5%	103%	104%	105%	101%	106%	96.4%	102%	100%	99.5%	98.8%	101%	96.3%	93%	93.6%	88.5%	90%
O=C(CC12CC3CC(CC(C3)C1)C2)Nc1cccc2nc(NCCNCCO)ccc12	0	0	0	0	0	> 10 µM	> 10 µM	> 10 µM	> 10 µM	> 10 µM	97.5%	94.7%	93.7%	96.8%	99.9%	91.2%	93.1%	93.8%	91.8%	91.8%	99%	101%	92.1%	98.4%	94.9%	96.1%	102%	95.2%	97.9%	95.1%	96%	102%	95.8%	91.4%	100%
O=S(=O)(/N=C/c1c(O)ccc2ccccc12)c1cccs1	0	0	0	0	0	> 10 µM	> 10 µM	> 10 µM	> 10 µM	> 10 µM	100%	120%	96.8%	109%	99.9%	102%	95.8%	97.4%	95.9%	103%	91.3%	99.3%	99.8%	104%	100%	103%	100%	98.9%	99.5%	103%	99.9%	102%	100%	106%	94.5%
CN1[C@@H]2CC[C@H]1C[C@@H](OC(c1ccc(F)cc1)c1ccc(F)cc1)C2 [3-alpha-bis-(4-fluorophenyl)-methoxytropane]	1.6	0	0	0	0.3	–	> 10 µM	> 10 µM	> 10 µM	> 10 µM	102%	96.3%	92%	93.6%	74.1%	95.5%	90.9%	92.6%	102%	102%	109%	106%	99.5%	126%	86.5%	102%	96.1%	101%	96.8%	93.1%	102%	103%	100%	97.9%	86.1%
CCc1nn(CCCN2CCN(c3cccc(Cl)c3)CC2)c(=O)n1CCOc1ccccc1 [nefazodone]	1.6	0.1	0	0	0	–	> 10 µM	> 10 µM	> 10 µM	> 10 µM	93.2%	91.5%	95.7%	97.6%	70.8%	96.4%	95.3%	100%	99.8%	86.3%	103%	94.6%	96.7%	96.3%	96.8%	106%	100%	101%	99%	97.4%	95.6%	101%	97.5%	102%	96.6%
N#Cc1ccc(-c2csc(NN=C3CCCC3)n2)cc1 [remodelin]	2.2	0.7	0	0	0	–	> 10 µM	> 10 µM	> 10 µM	> 10 µM	105%	97.2%	109%	92.3%	73.1%	95.5%	99.7%	94.8%	103%	76.6%	102%	102%	96.3%	116%	93%	98.3%	102%	99.3%	105%	95.5%	98.3%	103%	102%	99.2%	105%
CCCS(=O)(=O)Nc1ccc(F)c(C(=O)c2c[nH]c3ncc(-c4ccc(Cl)cc4)cc23)c1F [vemurafenib]	1.9	0.5	0	0.1	0	–	> 10 µM	> 10 µM	> 10 µM	> 10 µM	113%	103%	98.3%	107%	54.5%	109%	97.3%	117%	107%	77%	102%	105%	106%	95.8%	90.1%	96.6%	100%	95.2%	104%	86.8%	106%	104%	100%	111%	91.7%
